In brackets after ≈: the same amount, converted by molar mass.
Experiments:
[1] = test system: MRSA isolate ATCC BAA-1556; experiment: MIC, CLSI-guided broth susceptibility testing (Example 10); assay type: cell-based, Staphylococcus aureus
Experimental: (§1) MIC Testing: Glycopeptide compounds were dissolved in 100% DMSO. In vitro activities were determined using CLSI-guided broth susceptibility testing to measure drug minimum inhibitory concentrations (MICs) of the compounds against the quality control strain ATCC 29213 (MSSA) and the MRSA isolate ATCC BAA-1556. Glycopeptides are defined as compounds of Formula (I), and their respective R^1, R^2, R^3 and R^4 groups. X is —O— for each compound in Table 2.

[2] = test system: quality control strain ATCC 29213 (MSSA); experiment: as above; assay type: cell-based, Staphylococcus aureus
Experimental: as §1

With `CNC(CC(C)C)C(=O)NC1C(=O)NC(CC(N)=O)C(=O)NC2C(=O)NC3C(=O)NC(C(=O)NC(C(=O)O)c4cc(O)cc(O)c4-c4cc3ccc4O)C(O)c3ccc(c(Cl)c3)Oc3cc2cc(c3OC2OC(CO)C(O)C(O)C2OC2CC(C)(NCc3ccc(-c4ccc(Cl)cc4)cc3)C(O)C(C)O2)Oc2ccc(cc2Cl)C1O` (centres unmarked) [RV79] the “MIC Values MRSA 1556” value [1] was 0.016 µg/mL (≈ 9.7 nM) and the “MIC Values MSSA 29213” value [2] was 0.016 µg/mL (≈ 9.7 nM).

— patent publication US20200368312A1 (priority 2017, published 2020)
